Data from US20230053649A1 (Cedilla Therapeutics, Inc., priority 2021, published 2023).

Legend:
[1] = target: TEAD1 protein (YAP Binding Domain) (Homo sapiens, UniProt P28347); assay: biochemical
Description: Compound Displacement Assay.
A TEAD1 lipid pocket displacement assay was carried out according to the following protocol. Purified His-tagged TEAD1 protein (YAP Binding Domain) was pre-mixed with a Cy5-probe (Cy5-conjugated to a small molecule that binds in the TEAD1 lipid pocket) and Terbium-labeled anti-His antibody (Cisbio Cat 61HI2TLB). The binding of the Cy5-probe to anti-His-Tb/His-tag TEAD1 complex yielded a TR-FRET signal. […] After 60 minutes incubation at room temperature of compounds with the His-TEAD1/anti-His-Tb/Cy5-probe complex, the plate was read on a plate reader (BMG ClarioStar Cat 430-1300) using TR-FRET mode with wavelengths of 665 nm/620 nm. The potency of compounds as TEAD1 lipid pocket binders was determined by IC50 value generated using a non-linear 4 parameter curve fit.

[2] = system: mesothelioma cell line NCI-H226; assay: 72H TEAD Proliferation Assay (Cell Titer-Glo 2.0); format: cell-based; conditions: Homo sapiens, CTG 2.0, cell line not given in Table 1 (NCI-H226 TEAD-responsive, NCI-H28 non-responsive counter-screen)
Description: 72H TEAD Proliferation Assay.
The effect of TEAD inhibition on cell proliferation was assayed using Cell Titer Glo (CTG) 2.0 to measure response in mesothelioma cell lines NCI-H226 (ATCC, #CRL-5826) and NCI-H28 (ATCC, #CRL-5820).
The 72H TEAD Proliferation assay utilizes Cell Titer-Glo 2.0 (Promega, #G9243) to measure the proliferation of cells in the presence or absence of compound. Cell Titer-Glo 2.0 determines the amount of viable cells by quantifying ATP (an indication of metabolically active cells). It utilizes the conversion of Luciferin to Oxyluciferin and a luminescent signal with the use of ATP to report the quantity of viable cells in culture. Within cells that are continually growing, ATP is being synthesized to meet their metabolic demands, meanwhile the opposite is true for cells that are dying or slowing down their proliferation and either no longer using ATP or are using less, respectively. The NF2-deficient NCI-H226 has been genetically validated as a cell line that is sensitive to TEAD inhibition. The NF2-wild type NCI-H28 has been genetically validated as a cell line that is not sensitive to TEAD inhibition and grows independently of TEAD activity.
Compounds were screened against the responsive NCI-H226 cell line to assess the compounds' ability to inhibit TEAD and cell growth. Compounds were also screened against the non-responsive NCI-H28 cell line to ascertain whether the inhibition of cell growth was due to inhibition of the target TEAD or whether the inhibition was due to off-target cytotoxicity.
Both NCI-H226 and NCI-H28 cells were grown at 37° C. with 5% CO2 using Growth Medium 1.
Anti-proliferative effect of compounds that inhibits TEAD activity measured by CTG
1) Assay ready plates (ARPs) were prepared by Echo acoustic liquid handler. For each compound, duplicate of 10-point half-log dilution series were dispensed in a 384-well microplate (Corning 3571).
3) Before use, ARPs were allowed to warm up to room temperature for 30 min.
4) ARPs were spun for 5 minutes at 1500RPM before removing the plate seals.
5) NCI-H226 or NCI-H28 cells were harvested from culture in Assay Medium 1 and the multidrop Combi reagent dispenser was used to seed cells at 500 cells per 50ul in each well of the ARPs and one Corning 3571 plate without compounds for Time 0 (TO) readout.
6) The TO plate was incubated for 2 hours at 37° C. with 5% CO2 to allow cells to settle, then the CTG Assay was performed.
7) All ARPs were incubated for 72 hours at 37° C. with 5% CO2, then the CTG Assay was performed for Time 72H (T72) readout.
8) CTG Assay: Bravo liquid handler (Agilent) was used to add 25ul of CTG 2.0 to all columns of the plate except for Column 24, which was used to subtract out the background. After CTG addition, plates were placed on shaker at 800RPM for 15 minutes at room temperature and kept in the dark. Luminescence was measured using EnVision multilabel plate reader with ultra-sensitive detection module.
9) Data Analysis: First background luminescence (no CTG wells) was subtracted from luminescence reading of all wells, then TO luminescence was subtracted from T72 luminescence. To compare anti-proliferative effect of compounds, GI50 was obtained by fitting dose response curves with nonlinear regression curve fit.

TEAD1 protein (YAP Binding Domain), sequence (P28347 167-426 limits assumed): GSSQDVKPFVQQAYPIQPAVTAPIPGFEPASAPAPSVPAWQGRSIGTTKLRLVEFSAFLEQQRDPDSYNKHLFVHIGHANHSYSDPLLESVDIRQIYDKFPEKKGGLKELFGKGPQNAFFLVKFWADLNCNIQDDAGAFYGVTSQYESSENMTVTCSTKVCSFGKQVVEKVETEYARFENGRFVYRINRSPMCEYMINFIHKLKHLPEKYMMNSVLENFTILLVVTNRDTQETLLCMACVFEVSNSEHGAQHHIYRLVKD

Structure (SMILES)	IC50 [1] [nM]	GI50 [2] [nM]
C#Cc1cccc2cc(C(=O)N[C@@H](C)c3ccccn3)cnc12 [Compound 30, (S)-8-ethynyl-N-(1-(pyridin-2-yl)ethyl)quinoline-3-carboxamide]	> 500	> 5000
C[C@H](NC(=O)c1cnc2c(C#CC(C)(C)C)cccc2c1)c1ccccn1 [Compound 31, (S)-8-(3,3-dimethylbut-1-yn-1-yl)-N-(1-(pyridin-2-yl)ethyl)quinoline-3-carboxamide]	> 500	1000 to 5000
COc1ccc2c(N3CCC(C(F)(F)F)CC3)nc(C(=O)N[C@H](C)CO)cc2c1 [Compound 67, (R)-N-(1-hydroxypropan-2-yl)-6-methoxy-1-(4-(trifluoromethyl)piperidin-1-yl)isoquinoline-3-carboxamide]	> 500	> 5000
COc1ccc2c(N3CCC(C(F)(F)F)CC3)nc(C(=O)O)cc2c1 [Compound 68, 6-methoxy-1-(4-(trifluoromethyl)piperidin-1-yl)isoquinoline-3-carboxylic acid]	> 500	> 5000
COc1cc(N2CCC(C(C)(C)C)CC2)c2ncc(C(=O)N[C@H](C)CO)cc2c1 [Compound I-2, (R)-8-(4-(tert-butyl)piperidin-1-yl)-N-(1-hydroxypropan-2-yl)-6-methoxyquinoline-3-carboxamide]	300 to 500	≤ 500
COc1cc(N2CCC3(CC2)CC3)c2ncc(C(=O)N[C@H](C)CO)cc2c1 [Compound I-3, (R)-N-(1-hydroxypropan-2-yl)-6-methoxy-8-(6-azaspiro[2.5]octan-6-yl)quinoline-3-carboxamide]	150 to 300	500 to 1000
COc1cc(N2CCC3(CCCC3)CC2)c2ncc(C(=O)N[C@H](C)CO)cc2c1 [Compound I-4, (R)-N-(1-hydroxypropan-2-yl)-6-methoxy-8-(8-azaspiro[4.5]decan-8-yl)quinoline-3-carboxamide]	150 to 300	500 to 1000
COC[C@H](C)NC(=O)c1cnc2c(N3CCC(CC(F)(F)F)CC3)cc(OC)cc2c1 [Compound I-5, (S)-6-methoxy-N-(1-methoxypropan-2-yl)-8-(4-(2,2,2-trifluoroethyl)piperidin-1-yl)quinoline-3-carboxamide]	< 150	1000 to 5000
COc1cc(N2CCC3(CC2)CC(F)(F)C3)c2ncc(C(=O)N[C@H](C)CO)cc2c1 [Compound I-6, (R)-8-(2,2-difluoro-7-azaspiro[3.5]nonan-7-yl)-N-(1-hydroxypropan-2-yl)-6-methoxyquinoline-3-carboxamide]	< 150	500 to 1000
COc1cc(N2CCC(C(F)F)CC2)c2ncc(C(=O)N[C@H](C)CO)cc2c1 [Compound I-7, (R)-8-(4-(difluoromethyl)piperidin-1-yl)-N-(1-hydroxypropan-2-yl)-6-methoxyquinoline-3-carboxamide]	150 to 300	1000 to 5000
COc1cc(N2CCN(CC(F)(F)F)CC2)c2ncc(C(=O)N[C@H](C)CO)cc2c1 [Compound I-8, (R)-N-(1-hydroxypropan-2-yl)-6-methoxy-8-(4-(2,2,2-trifluoroethyl)piperazin-1-yl)quinoline-3-carboxamide]	> 500	> 5000
COC[C@H](C)NC(=O)c1cnc2c(N3CCC(C(F)(F)F)CC3)cc(OC)cc2c1 [Compound I-9, (S)-6-methoxy-N-(1-methoxypropan-2-yl)-8-(4-(trifluoromethyl)piperidin-1-yl)quinoline-3-carboxamide]	150 to 300	≤ 500
COc1cc(N2CCC(C(F)(F)F)CC2)c2ncc(C(=O)NC(C)(C)CO)cc2c1 [Compound I-10, N-(1-hydroxy-2-methylpropan-2-yl)-6-methoxy-8-(4-(trifluoromethyl)piperidin-1-yl)quinoline-3-carboxamide]	300 to 500	1000 to 5000
COc1cc(N2CCC(C(F)(F)F)CC2)c2ncc(C(=O)N3CC(O)C3)cc2c1 [Compound I-11, (3-hydroxyazetidin-1-yl)(6-methoxy-8-(4-(trifluoromethyl)piperidin-1-yl)quinolin-3-yl)methanone]	> 500	1000 to 5000
COc1cc(N2CCC(C(F)(F)F)CC2)c2ncc(C(=O)N[C@@H](C)COC(F)(F)F)cc2c1 [Compound I-12, (S)-6-methoxy-N-(1-(trifluoromethoxy)propan-2-yl)-8-(4-(trifluoromethyl)piperidin-1-yl)quinoline-3-carboxamide]	> 500	≤ 500
CC[C@H](CO)NC(=O)c1cnc2c(N3CCC(C(F)(F)F)CC3)cc(OC)cc2c1 [Compound I-13, (R)-N-(1-hydroxybutan-2-yl)-6-methoxy-8-(4-(trifluoromethyl)piperidin-1-yl)quinoline-3-carboxamide]	< 150	≤ 500
CC[C@@H](CO)NC(=O)c1cnc2c(N3CCC(C(F)(F)F)CC3)cc(OC)cc2c1 [Compound I-14, (S)-N-(1-hydroxybutan-2-yl)-6-methoxy-8-(4-(trifluoromethyl)piperidin-1-yl)quinoline-3-carboxamide]	150 to 300	1000 to 5000
COc1cc(-c2ccc(OC(F)(F)F)cc2)c2ncc(C(=O)N[C@H](C)CO)cc2c1 [Compound I-15, (R)-N-(1-hydroxypropan-2-yl)-6-methoxy-8-(4-(trifluoromethoxy)phenyl)quinoline-3-carboxamide]	< 150	≤ 500
COc1cc(-c2ccc(OC(C)(C)C)cc2)c2ncc(C(=O)N[C@H](C)CO)cc2c1 [Compound I-16, (R)-8-(4-(tert-butoxy)phenyl)-N-(1-hydroxypropan-2-yl)-6-methoxyquinoline-3-carboxamide]	150 to 300	1000 to 5000
COc1cc(-c2ccc(OC(F)F)cc2)c2ncc(C(=O)N[C@H](C)CO)cc2c1 [Compound I-17, (R)-8-(4-(difluoromethoxy)phenyl)-N-(1-hydroxypropan-2-yl)-6-methoxyquinoline-3-carboxamide]	< 150	≤ 500
COc1cc(-c2ccc(OCC(F)(F)F)cc2)c2ncc(C(=O)N[C@H](C)CO)cc2c1 [Compound I-18, (R)-N-(1-hydroxypropan-2-yl)-6-methoxy-8-(4-(2,2,2-trifluoroethoxy)phenyl)quinoline-3-carboxamide]	150 to 300	1000 to 5000
COc1cc(-c2ccc(Oc3ccccc3)cc2)c2ncc(C(=O)N[C@H](C)CO)cc2c1 [Compound I-19, (R)-N-(1-hydroxypropan-2-yl)-6-methoxy-8-(4-phenoxyphenyl)quinoline-3-carboxamide]	150 to 300	> 5000
COc1cc(-c2ccc(OC3CC3)cc2)c2ncc(C(=O)N[C@H](C)CO)cc2c1 [Compound I-20, (R)-8-(4-cyclopropoxyphenyl)-N-(1-hydroxypropan-2-yl)-6-methoxyquinoline-3-carboxamide]	< 150	≤ 500
COc1cc(-c2ccc(OC(F)(F)F)cc2F)c2ncc(C(=O)N[C@H](C)CO)cc2c1 [Compound I-21, (R)-8-(2-fluoro-4-(trifluoromethoxy)phenyl)-N-(1-hydroxypropan-2-yl)-6-methoxyquinoline-3-carboxamide]	–	≤ 500
CC(CO)NC(=O)c1ccc2c(OCC3CCC(F)(F)CC3)cccc2c1 (stereo not drawn) [Compound I-22, 5-((4,4-Difluorocyclohexyl)methoxy)-N-(1-hydroxypropan-2-yl)-2-naphthamide]	150 to 300	≤ 500
C[C@H](CO)NC(=O)c1cnc2c(N3CCC4(CC3)CC4)cc(OC(F)F)cc2c1 [Compound I-27, (R)-6-(difluoromethoxy)-N-(1-hydroxypropan-2-yl)-8-(6-azaspiro[2.5]octan-6-yl)quinoline-3-carboxamide]	–	1000 to 5000
CC(CO)NC(=O)c1ccc2c(OCc3ccc(C(F)(F)F)cc3)cccc2c1 (stereo not drawn) [Compound I-44, N-(1-hydroxypropan-2-yl)-5-((4-(trifluoromethyl)benzyl)oxy)-2-naphthamide]	–	> 5000
